What all share (test): DTP human tumour cell line panel, 48 h
In assay [1] the test system is A549 NSCLC.
In assay [2] the test system is ACHN renal.
For assay [3], the system named is HCT-15 colon.
Assay [4] relates to IGROV1 ovarian.
The test system of assay [5] is OVCAR-5 ovarian.
The subject of assay [6] is RXF 393 renal.
Assay [7] has as its system SF-539 CNS.
Assay [8] concerns UACC-257 melanoma.

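Interpolation was linear, between the two tested concentrations surrounding the appropriate level; five concentrations were tested over 48 hours in 96-well plates. At the GI50, growth is halved. TGI: concentration producing complete growth inhibition.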

As usually defined, the TGI is the concentration giving total growth inhibition. Low readings indicate more potent growth arrest, high ones less potent growth arrest. As for `CCOC(=O)C1=C(OC(OCC)C(CC)[Se]c2ccccc2)CCCC1` (stereo not given), the total growth inhibition concentration (TGI) in assay [1] was over 100 µM; in assay [2], 82.2 µM; in assay [3], 41.2 µM; in assay [4] it was over 100 µM; in assay [5], 67.7 µM; in assay [6], 37.7 µM. The results for the TGI in assay [7] and in assay [8] were 35.4 µM and over 100 µM, respectively.

As for `O=C1CCC2(c3ccc(F)cc3)Nc3cc(Cl)ccc3N12` (stereo not given), the total growth inhibition concentration (TGI) in assay [1], in assay [2], in assay [3], in assay [4], in assay [6] and in assay [7] was over 100 µM throughout. Moreover, the total growth inhibition concentration (TGI) in assay [8] is over 100 µM.

As to `NC(CCC(=O)NC(CSSCCCCS(=O)O)C(=O)NCC(=O)O)C(=O)O` (stereo not given), the total growth inhibition concentration (TGI) in assay [1], in assay [2], in assay [3], in assay [4], in assay [5] and in assay [6] was over 100 µM in each case. For the same compound, the TGI in assay [7] and in assay [8] was over 100 µM throughout.

Consider `CSC(C1c2ccccc2N(c2ccc(C)cc2)C2=NC(=O)N(C)C(=O)C21Cl)S(=O)(=O)c1ccc(C)cc1` (stereo not given), for which the concentration for total growth inhibition (TGI) in assay [1] was over 100 µM; in assay [2], over 100 µM; in assay [4] it was 85.6 µM; in assay [5], 83.2 µM; in assay [7], 34.3 µM; in assay [8], 57.2 µM.

The term GI50 denotes the concentration that inhibits growth by half. In the case of `CCOC(=O)[C]1([Bi]([CH3])[CH3])N=NC(C(=O)OC)=C1C(=O)OC` (stereo not given), the GI50 is over 10 µM in assay [1]; 18 µM in assay [2]; 20.7 µM in assay [3]; 24.6 µM in assay [4]; over 10 µM in assay [5]; 18.1 µM in assay [7]. Further, the concentration for total growth inhibition (TGI) is over 10 µM in assay [1]; 32.4 µM in assay [2]; 49.6 µM in assay [3]; 51.9 µM in assay [4]; over 10 µM in assay [5]; 32.3 µM in assay [7].

For `COC(=O)c1c/c(=N\NC(=O)CC(=O)Nc2ccccc2OC)c2ccccc2o1`, the total growth inhibition concentration (TGI) in assay [1], in assay [2], in assay [3], in assay [4], in assay [5] and in assay [7] was over 100 µM throughout.

For `OCC(O)CC[CH2][Sn]([Br])([c]1ccccc1)[c]1ccccc1` (stereo not given), the GI50 in assay [1], in assay [2], in assay [3], in assay [4], in assay [5] and in assay [6] was over 100 µM each time. Also, the GI50 in assay [7] and in assay [8] was over 100 µM each time. For the same compound, the total growth inhibition concentration (TGI) in assay [1], in assay [2], in assay [3], in assay [4], in assay [5] and in assay [6] was over 100 µM throughout. Besides, the concentration for total growth inhibition (TGI) in assay [7] and in assay [8] was over 100 µM in each case.

For the compound `Cc1cc2c(cc1C)[n+](=O)c(C(=O)C/C(=N/NC(=O)CC#N)C(=O)Nc1ccccc1C(F)(F)F)c(C)n2[O-]`, the total growth inhibition concentration (TGI) in assay [1], in assay [2], in assay [3], in assay [4], in assay [5] and in assay [6] was over 100 µM throughout. The total growth inhibition concentration (TGI) in assay [7] and in assay [8] was over 100 µM in each case.

On to `O=c1c2cc([N+](=O)[O-])ccc2sc2ccsc12`, for which the total growth inhibition concentration (TGI) in assay [1], in assay [2], in assay [3], in assay [4], in assay [5] and in assay [6] was over 100 µM throughout. The total growth inhibition concentration (TGI) in assay [7] and in assay [8] was over 100 µM each time.

As for `O=C1/C(=C/c2ccccc2)CNC/C1=C\c1ccccc1`, the TGI in assay [1] was determined as 7.63 µM; in assay [2], 4.37 µM; in assay [3], 2.76 µM; in assay [4], 3.63 µM; in assay [5], 6.21 µM; in assay [7] it was 3.46 µM. Also, in assay [8], the total growth inhibition concentration (TGI) worked out at 10.6 µM.

In the case of `COC12C=C(C)C(CC1)CC2C(=O)O` (stereo not given), the TGI in assay [1], in assay [2], in assay [3], in assay [4], in assay [5] and in assay [6] was over 100 µM each time. In addition, the TGI in assay [7] and in assay [8] was over 100 µM in each case.

As for `CC1=NN(C(=O)Nc2ccccc2)C(=O)C2CCC(=O)N12` (stereo not given), the concentration for total growth inhibition (TGI) in assay [1], in assay [2], in assay [3], in assay [4], in assay [6] and in assay [7] was over 100 µM in each case. For the same compound, in assay [8], the TGI was over 100 µM.

`O=c1/c(=C/c2ccco2)sc2nc3ccccc3n12`: the GI50 in assay [1] is over 100 µM; in assay [2] it was over 100 µM; in assay [4] it was over 100 µM; in assay [6], over 10 µM; in assay [7], over 100 µM; in assay [8], over 100 µM. For the same compound, the TGI was over 100 µM in assay [1]; over 100 µM in assay [2]; over 10 µM in assay [3]; over 100 µM in assay [4]; over 10 µM in assay [5]; over 100 µM in assay [6]. Further, the total growth inhibition concentration (TGI) in assay [7] and in assay [8] was over 100 µM in each case.

As to `O=C(/C=C/c1c(O)ccc2ccccc12)c1cccc(O)c1`, the total growth inhibition concentration (TGI) in assay [1], in assay [2], in assay [3], in assay [4], in assay [5] and in assay [6] was over 100 µM in each case. Besides, the TGI in assay [7] and in assay [8] was over 100 µM each time.

Consider `O=C1C2c3[nH]c4ccccc4c3C3CCCCCCC3C2C(=O)N1c1ccccc1` (stereo not given), for which the total growth inhibition concentration (TGI) is 24.9 µM in assay [1]; 38.4 µM in assay [2]; over 100 µM in assay [3]; 23.8 µM in assay [6]; 30.5 µM in assay [7].

Consider `C/C(CC(=O)Nc1ccc(C)cc1C)=N/N=C(N)N`, for which the TGI in assay [1], in assay [2], in assay [4], in assay [5], in assay [6] and in assay [7] was over 100 µM in each case. The TGI in assay [8] was over 100 µM.

These data come from PubChem BioAssay (NCI).
